Several values for one entry are separate records, joined by “and”; a condition that tells them apart may be missing. Equal values may be shown once.
Test: xn = mol fraction of the nth substance listed

CCCCCCCCCCO + CCCCCCCCO
viscosity [mPa·s], 101.8 kPa
Conditions | x2 = 0.1199 | x2 = 0.3407 | x2 = 0.5487 | x2 = 0.7394 | x2 = 0.918
298.15 K | 11.14 | 10.21 | 9.324 | 8.588 | 7.888
308.15 K | 7.791 | 7.162 | 6.608 | 6.092 | 5.658
318.15 K | 5.571 | 5.156 | 4.78 | 4.438 | 4.135

CN1CCN(C)C1=O + CCCCCCCCn1cc[n+](C)c1.[Cl-]
100 kPa
Conditions | viscosity [mPa·s]
293.15 K, x2 = 0.6016 | 985.8
313.15 K, x2 = 0.7994 | 773.5
318.15 K, x2 = 0.105 | 3.715
323.15 K, x2 = 0.7994 | 404.5

CC(C)[C@@H]1CC[C@@H](C)C[C@H]1O + CCCCCCCO
Conditions | viscosity [mPa·s]
298.15 K, 101.33 kPa, x1 = 0.5 | 27.53

CCCCCCCCCCO + CCCCCCCO
viscosity [mPa·s], 101.8 kPa
Conditions | x2 = 0.1302 | x2 = 0.3682 | x2 = 0.5771 | x2 = 0.7604 | x2 = 0.9256
298.15 K | 10.82 | 9.364 | 8.193 | 7.155 | 6.307
308.15 K | 7.586 | 6.635 | 5.836 | 5.18 | 4.596
318.15 K | 5.438 | 4.801 | 4.264 | 3.812 | 3.413

CCOC(=O)OCC + CCCCCCCO
101 kPa
Conditions | viscosity [mPa·s]
293.15 K, x1 = 0.0488 | 5.846
293.15 K, x1 = 0.1045 | 4.795
293.15 K, x1 = 0.1829 | 3.725
293.15 K, x1 = 0.3015 | 2.669
293.15 K, x1 = 0.4047 | 2.08
293.15 K, x1 = 0.4807 | 1.748
293.15 K, x1 = 0.5714 | 1.453
293.15 K, x1 = 0.7024 | 1.153
293.15 K, x1 = 0.7985 | 0.995
293.15 K, x1 = 0.9023 | 0.873
293.15 K, x1 = 0.9522 | 0.831
303.15 K, x1 = 0.06097 | 4.061
303.15 K, x1 = 0.1159 | 3.411
303.15 K, x1 = 0.1861 | 2.773
303.15 K, x1 = 0.296 | 2.086
303.15 K, x1 = 0.4 | 1.655
303.15 K, x1 = 0.4747 | 1.417
303.15 K, x1 = 0.5946 | 1.149
303.15 K, x1 = 0.7056 | 0.955
303.15 K, x1 = 0.7928 | 0.851
303.15 K, x1 = 0.9047 | 0.755
303.15 K, x1 = 0.9521 | 0.727
313.15 K, x1 = 0.05658 | 3.024
313.15 K, x1 = 0.1024 | 2.586
313.15 K, x1 = 0.1931 | 2.03
313.15 K, x1 = 0.3063 | 1.576
313.15 K, x1 = 0.3932 | 1.348
313.15 K, x1 = 0.4994 | 1.121
313.15 K, x1 = 0.5837 | 0.974
313.15 K, x1 = 0.7095 | 0.811
313.15 K, x1 = 0.7894 | 0.736
313.15 K, x1 = 0.8956 | 0.661
313.15 K, x1 = 0.9569 | 0.634

CC(C)[C@@H]1CC[C@@H](C)C[C@H]1O + CCCCCCO
Conditions | viscosity [mPa·s]
298.15 K, 101.33 kPa, x1 = 0.5 | 22.95

CCCCCCCCCCO + CCCCCCO
viscosity [mPa·s], 101.8 kPa
Conditions | x2 = 0.1493 | x2 = 0.3989 | x2 = 0.6071 | x2 = 0.7831 | x2 = 0.9346
298.15 K | 10.38 | 8.464 | 7.01 | 5.822 | 4.905
308.15 K | 7.307 | 6.019 | 5.068 | 4.271 | 3.643
318.15 K | 5.25 | 4.393 | 3.745 | 3.191 | 2.75

CCOC(=O)OCC + CCCCCCO
101 kPa
Conditions | viscosity [mPa·s]
293.15 K, x1 = 0.0551 | 4.432
293.15 K, x1 = 0.1001 | 3.822
293.15 K, x1 = 0.2106 | 2.778
293.15 K, x1 = 0.3101 | 2.17
293.15 K, x1 = 0.4052 | 1.77
293.15 K, x1 = 0.5061 | 1.454
293.15 K, x1 = 0.6093 | 1.229
293.15 K, x1 = 0.7555 | 0.999
293.15 K, x1 = 0.7968 | 0.958
293.15 K, x1 = 0.8927 | 0.868
293.15 K, x1 = 0.9522 | 0.826
303.15 K, x1 = 0.05134 | 3.305
303.15 K, x1 = 0.1004 | 2.818
303.15 K, x1 = 0.2102 | 2.088
303.15 K, x1 = 0.3094 | 1.667
303.15 K, x1 = 0.4091 | 1.367
303.15 K, x1 = 0.5094 | 1.145
303.15 K, x1 = 0.6017 | 0.998
303.15 K, x1 = 0.7089 | 0.873
303.15 K, x1 = 0.8045 | 0.795
303.15 K, x1 = 0.9051 | 0.734
303.15 K, x1 = 0.9543 | 0.715
313.15 K, x1 = 0.06803 | 2.378
313.15 K, x1 = 0.222 | 1.602
313.15 K, x1 = 0.3216 | 1.303
313.15 K, x1 = 0.4055 | 1.125
313.15 K, x1 = 0.5084 | 0.954
313.15 K, x1 = 0.6037 | 0.839
313.15 K, x1 = 0.7059 | 0.748
313.15 K, x1 = 0.8097 | 0.682
313.15 K, x1 = 0.9065 | 0.642
313.15 K, x1 = 0.957 | 0.625

Cc1ccccc1C + CCCCCCO
viscosity, 101 kPa
Conditions | 303.15 K | 313.15 K | 318.15 K | 323.15 K
x2 = 0.0999 | 0.758 mPa·s | 0.663 mPa·s | – | 0.584 mPa·s
x2 = 0.1 | 0.7581 mPa·s | 0.6626 mPa·s | – | 0.5835 mPa·s
x2 = 0.1999 | 0.852 mPa·s | 0.731 mPa·s | – | 0.637 mPa·s
x2 = 0.2 | 0.852 mPa·s | 0.7312 mPa·s | 0.6825 mPa·s | 0.6374 mPa·s
x2 = 0.2999 | 0.978 mPa·s | 0.829 mPa·s | – | 0.713 mPa·s
x2 = 0.3 | 0.9776 mPa·s | 0.8292 mPa·s | – | 0.7127 mPa·s
x2 = 0.4 | 1.142 mPa·s | 0.9571 mPa·s | – | 0.8098 mPa·s
x2 = 0.4001 | 1.142 mPa·s | 0.957 mPa·s | – | 0.81 mPa·s
x2 = 0.4997 | 1.361 mPa·s | 1.118 mPa·s | – | 0.933 mPa·s
x2 = 0.5 | 1.361 mPa·s | 1.118 mPa·s | – | 0.933 mPa·s
x2 = 0.6 | 1.651 mPa·s and 1.651 mPa·s | 1.325 mPa·s and 1.325 mPa·s | – | 1.087 mPa·s and 1.087 mPa·s
x2 = 0.7 | 2.034 mPa·s and 2.034 mPa·s | 1.596 mPa·s and 1.596 mPa·s | – | 1.284 mPa·s and 1.284 mPa·s
x2 = 0.8 | 2.532 mPa·s and 2.532 mPa·s | 1.951 mPa·s and 1.951 mPa·s | – | 1.541 mPa·s and 1.541 mPa·s
x2 = 0.8999 | 3.141 mPa·s | 2.391 mPa·s | – | 1.859 mPa·s
x2 = 0.9 | 3.141 mPa·s | 2.391 mPa·s | – | 1.859 mPa·s

CN1CCN(C)C1=O + CCCCCCn1cc[n+](C)c1.[Cl-]
100 kPa
Conditions | viscosity [mPa·s]
298.15 K, x2 = 0.1007 | 4.815
303.15 K, x2 = 0.7981 | 978.5

CC(C)[C@@H]1CC[C@@H](C)C[C@H]1O + CCCCO
Conditions | viscosity [mPa·s]
298.15 K, 101.33 kPa, x1 = 0.5 | 18.77

CCCCCCCCCCO + CCCCO
viscosity [mPa·s]
Conditions | 293.15 K | 298.15 K | 308.15 K | 318.15 K
101 kPa, x2 = 0.05 | – | 10.62 | 7.143 | 5.139
101 kPa, x2 = 0.1 | – | 10.2 | 6.798 | 4.922
101 kPa, x2 = 0.15 | – | 9.731 | 6.473 | 4.71
101 kPa, x2 = 0.2 | – | 9.226 | 6.163 | 4.501
101 kPa, x2 = 0.25 | – | 8.701 | 5.866 | 4.294
101 kPa, x2 = 0.3 | – | 8.167 | 5.576 | 4.088
101 kPa, x2 = 0.35 | – | 7.635 | 5.292 | 3.883
101 kPa, x2 = 0.4 | – | 7.113 | 5.012 | 3.678
101 kPa, x2 = 0.45 | – | 6.609 | 4.734 | 3.475
101 kPa, x2 = 0.5 | – | 6.127 | 4.456 | 3.272
101 kPa, x2 = 0.55 | – | 5.671 | 4.179 | 3.07
101 kPa, x2 = 0.6 | – | 5.243 | 3.903 | 2.872
101 kPa, x2 = 0.65 | – | 4.843 | 3.629 | 2.676
101 kPa, x2 = 0.7 | – | 4.47 | 3.358 | 2.485
101 kPa, x2 = 0.75 | – | 4.12 | 3.093 | 2.301
101 kPa, x2 = 0.8 | – | 3.788 | 2.837 | 2.124
101 kPa, x2 = 0.85 | – | 3.468 | 2.592 | 1.958
101 kPa, x2 = 0.9 | – | 3.152 | 2.364 | 1.804
101 kPa, x2 = 0.95 | – | 2.828 | 2.157 | 1.665
101.33 kPa, x2 = 0.1748 | 11.91 | – | – | –
101.33 kPa, x2 = 0.1793 | – | 9.791 | – | –
101.33 kPa, x2 = 0.2939 | 10.27 | – | – | –
101.33 kPa, x2 = 0.4002 | – | 7.559 | – | –
101.33 kPa, x2 = 0.491 | 7.756 | – | – | –
101.33 kPa, x2 = 0.5389 | – | 6.102 | – | –
101.33 kPa, x2 = 0.6325 | 6.156 | – | – | –
101.33 kPa, x2 = 0.7242 | – | 4.498 | – | –
101.33 kPa, x2 = 0.7787 | 4.69 | – | – | –
101.33 kPa, x2 = 0.836 | – | 3.659 | – | –
101.33 kPa, x2 = 0.8851 | 3.806 | – | – | –
101.33 kPa, x2 = 0.9219 | – | 3.077 | – | –

From the CheMixHub viscosity set
